Data reported in PubChem BioAssay (NCI).
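Dose response: 5 concentrations. Exposure: 48 h. Format: 96-well plates. Endpoint: linear interpolation; highest concentration if not reached. The concentration for 50% growth inhibition is given as GI50. At the TGI there is no net growth.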

Legend:
Assay in all cases: NCI tumour cell line growth inhibition, 48 h
NCI-H226 lung = system: NCI-H226 lung
OVCAR-3 ovarian = system: OVCAR-3 ovarian
NCI-H522 lung = system: NCI-H522 lung
CAKI-1 renal = system: CAKI-1 renal
OVCAR-4 ovarian = system: OVCAR-4 ovarian
SK-MEL-28 melanoma = system: SK-MEL-28 melanoma
SNB-19 CNS = system: SNB-19 CNS
UACC-257 melanoma = system: UACC-257 melanoma
K-562 leukemia = system: K-562 leukemia
HCT-116 colon = system: HCT-116 colon

| Compound | TGI (NCI-H226 lung) | TGI (OVCAR-3 ovarian) | TGI (NCI-H522 lung) | TGI (CAKI-1 renal) | TGI (OVCAR-4 ovarian) | TGI (SK-MEL-28 melanoma) | TGI (SNB-19 CNS) | TGI (UACC-257 melanoma) | TGI (K-562 leukemia) | TGI (HCT-116 colon) | GI50 (NCI-H226 lung) | GI50 (OVCAR-3 ovarian) | GI50 (NCI-H522 lung) | GI50 (CAKI-1 renal) | GI50 (OVCAR-4 ovarian) | GI50 (SK-MEL-28 melanoma) | GI50 (SNB-19 CNS) | GI50 (UACC-257 melanoma) | GI50 (K-562 leukemia) | GI50 (HCT-116 colon) |
| --- | --- | --- | --- | --- | --- | --- | --- | --- | --- | --- | --- | --- | --- | --- | --- | --- | --- | --- | --- | --- |
| CCC(=O)Nc1nc2c(ncn2C2OC(COC(=O)CC)C(OC(=O)CC)C2OC(=O)CC)c(=O)[nH]1 (stereo not given) | > 100 µM | > 100 µM | > 100 µM | > 100 µM | > 100 µM | > 100 µM | > 100 µM | > 100 µM | > 100 µM | > 100 µM |  |  |  |  |  |  |  |  |  |  |
| O=[N+]([O-])c1ccc(-c2ccc(-c3csc(Nc4ccccc4)n3)o2)cc1 | > 84.1 µM | 33.7 µM | 32 µM | 39.5 µM | 32 µM | 32.2 µM | > 65.8 µM | 33.3 µM | 32.1 µM | 47 µM |  |  |  |  |  |  |  |  |  |  |
| CC(NC(=O)N(C)C)NC(=O)N(C)C | > 10 µM | > 10 µM | > 10 µM | > 10 µM | > 10 µM | > 10 µM | > 10 µM | > 10 µM | > 10 µM | > 10 µM |  |  |  |  |  |  |  |  |  |  |
| COc1ccc(C(=O)NCCN(C)C)c2nc3ccccc3nc12 | 16.8 µM | > 29.3 µM | > 100 µM | > 36.2 µM | 16.8 µM | 16.8 µM | > 53 µM | 13 µM | 5.72 µM | 12.8 µM |  |  |  |  |  |  |  |  |  |  |
| O=[N+]([O-])c1ccc(Sc2c3ccccc3nc3cc(Cl)ccc23)cc1 | > 100 µM | > 100 µM | > 100 µM | > 100 µM | > 100 µM | > 100 µM | > 100 µM | > 100 µM | > 100 µM | > 100 µM | > 100 µM | > 100 µM | > 100 µM | > 100 µM | > 100 µM | > 100 µM | > 100 µM | > 100 µM | > 100 µM | > 100 µM |
| NC(=S)NN/C=C(\C=Nc1ccccc1)[N+](=O)[O-] | > 100 µM | > 100 µM | > 100 µM | > 100 µM | > 100 µM | > 100 µM | > 100 µM | > 100 µM | > 100 µM | > 100 µM |  |  |  |  |  |  |  |  |  |  |
| O=C(O)c1ccc(C2C(=O)N[C@@H]3CCC[C@H]23)cc1 (stereo not given in full) | > 100 µM | > 100 µM | > 100 µM | > 100 µM | > 100 µM | > 100 µM | > 100 µM | > 100 µM | > 100 µM | > 100 µM |  |  |  |  |  |  |  |  |  |  |
| CCOC(=O)NC(=O)c1cn(CCN2CCN(C(=O)CCCCCCCCCCC(=O)N3CCN(CCn4cc(C(=O)NC(=O)OCC)c(=O)[nH]c4=O)CC3)CC2)c(=O)[nH]c1=O | > 100 µM | > 100 µM | > 100 µM | > 100 µM | > 100 µM | > 100 µM | > 100 µM | > 100 µM | > 100 µM | > 100 µM |  |  |  |  |  |  |  |  |  |  |
| CCNC(=O)c1noc(-c2cc(C(C)C)c(O)cc2O)c1-c1ccc(CN2CCOCC2)cc1 | 26.6 µM | 19.1 µM | 13.6 µM | > 100 µM | > 100 µM | 22.7 µM | > 100 µM | 0.159 µM | > 46.3 µM | 15.5 µM | 0.0409 µM | 0.0529 µM | 0.0333 µM | 0.059 µM | 10.9 µM | 0.055 µM | 0.0762 µM | 0.0259 µM | < 0.0172 µM | 0.0313 µM |
| CC(=O)O[C@H]1CCc2c(cc(N)c3c2C(=O)C[C@]2(C)C([C@H](C)CCCC(C)C)CCC32C)C1(C)C (stereo not given in full) | > 100 µM | > 100 µM | > 100 µM | > 100 µM | > 100 µM | > 100 µM | > 100 µM | > 100 µM | > 100 µM | > 100 µM |  |  |  |  |  |  |  |  |  |  |
| CN(C)C(=O)O[C@H]1CN[C@H](C#Cc2cc3ncnc(Nc4ccc(OCc5cccc(F)c5)c(Cl)c4)c3s2)C1 | 19.2 µM | 16.3 µM | > 12.7 µM | > 25 µM | > 25 µM | > 25 µM | > 25 µM | > 25 µM | > 25 µM | > 25 µM | 5.49 µM | 4.2 µM | 0.977 µM | 4.06 µM | 20.4 µM | > 25 µM | > 19.7 µM | > 25 µM | > 17.1 µM | 12.1 µM |
| O=c1oc2ccc(I)cc2c(=O)n1-c1ccc(Cl)cc1F | 8.53 µM | 12 µM | 9.72 µM | 5.61 µM | 19 µM | 2.98 µM | 58.7 µM | 6.45 µM | > 100 µM | 3.86 µM | 1.96 µM | 0.974 µM | 0.8 µM | 1.09 µM | 1.68 µM | 0.416 µM | 0.64 µM | 0.526 µM | 0.658 µM | 1.21 µM |
| COC(=O)C(/C(=N\O)C(=O)Nc1cccc(Cl)c1C)c1cnc2ccccc2n1 (stereo not given) | > 100 µM | > 100 µM | > 100 µM | > 100 µM | > 100 µM | > 100 µM | > 100 µM | > 100 µM | > 100 µM | > 100 µM |  |  |  |  |  |  |  |  |  |  |
| COC(=O)C1(O)CC(=O)CCC1c1ccc(OC)cc1 (stereo not given) | > 100 µM | > 100 µM | > 100 µM | > 100 µM | > 100 µM | > 100 µM | > 100 µM | > 100 µM | > 100 µM | > 100 µM |  |  |  |  |  |  |  |  |  |  |
| CN1/C(=C\C=C\C2=[N+](C)c3ccccc3C2(C)C)C(C)(C)c2ccccc21 | 2.39 µM | 0.948 µM | 10.2 µM | 5.04 µM | 5.21 µM | 2.84 µM | 12 µM | 0.452 µM | 1.39 µM | 1.11 µM | 0.103 µM | 0.0514 µM | 0.0782 µM | 0.55 µM | 0.0922 µM | 0.412 µM | 0.067 µM | 0.0386 µM | < 0.0156 µM | 0.0303 µM |
| COc1cc2c(cc1OC)C(C(=O)c1cccc(OC)c1OC)C(=O)N(C)CC2 (stereo not given) | > 100 µM | > 100 µM | > 100 µM | > 100 µM | > 100 µM | > 100 µM | > 100 µM | > 100 µM | > 100 µM | > 100 µM |  |  |  |  |  |  |  |  |  |  |
| Nc1ncnc2c1ncn2CC(O)CO (stereo not given) | > 100 µM | > 100 µM | > 100 µM | > 100 µM | > 100 µM | > 100 µM | > 100 µM | > 100 µM | > 100 µM | > 100 µM |  |  |  |  |  |  |  |  |  |  |
| CCN(C(=O)/C=C/c1ccco1)c1ccccc1 | > 100 µM | > 100 µM | > 100 µM | > 100 µM | > 100 µM | > 100 µM | > 100 µM | > 100 µM | > 100 µM | > 100 µM |  |  |  |  |  |  |  |  |  |  |
